Data from US20010047099A1, “4-aminopicolinates and their use as herbicides” (priority 2000, published 2001).
Like-named read-outs stand apart in the source and are kept apart here.

Legend:
Type in all cases: in vivo
[1] = test system: chickweed (Stellaria media); test: Postemergence herbicidal activity; conditions: for inhibition at 125 ppm / pest or weed control at 125 ppm / pest or weed control at 250 ppm: Stellaria media, post-emergence, 336 h; for inhibition at 125 ppm: Table 2, read-out: POSTMERGENCE HERBICIDAL ACTIVITY % CONTROL STEME; for pest or weed control at 125 ppm / pest or weed control at 250 ppm: read-out: Post-emergent % Control STEME
Outline: (§1)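 Foliar spray at 1st–2nd true leaf; 1 ppm ≈ 1 g/Ha. Carrier: acetone/water/IPA/DMSO plus crop oil concentrate and Triton X-155. Greenhouse, sub-irrigated. Visual rating vs untreated at 2 wk, 0 = no injury, 100 = complete kill.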

[2] = test system: cocklebur (Xanthium strumarium); test: Postemergence herbicidal activity; conditions: Xanthium strumarium, post-emergence, 336 h; for inhibition at 125 ppm: Table 2, read-out: POSTMERGENCE HERBICIDAL ACTIVITY % CONTROL XANST; for pest or weed control at 125 ppm / pest or weed control at 250 ppm: read-out: Post-emergent % Control XANST; for pest or weed control at 250 ppm: rate 250 ppm
Outline: as §1

[3] = test system: wild buckwheat (Polygonum convolvulus); test: Postemergence herbicidal activity; conditions: for inhibition at 125 ppm / pest or weed control at 125 ppm / pest or weed control at 250 ppm: Fallopia convolvulus, post-emergence, 336 h; for inhibition at 125 ppm: Table 2, read-out: POSTMERGENCE HERBICIDAL ACTIVITY % CONTROL POLCO; for pest or weed control at 125 ppm / pest or weed control at 250 ppm: read-out: Post-emergent % Control POLCO
Outline: as §1

[4] = test system: Rox orange sorghum (sorghum bicolor); test: Preemergence herbicidal activity; conditions: pre-emergence, 504 h
Outline: (§2)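 Pre-emergence soil spray; loam:sand 70:30, pH ~8.1. Vehicle: acetone/DMSO 97:3 stock diluted in water + 0.1% Tween 155; controls sprayed with aqueous mixture. Greenhouse 23-29° C day/22-28° C night, 15 hr photoperiod. Visual % injury vs untreated at 3 wk.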

[5] = test system: cocklebur (Xanthium strumarium); test: Preemergence herbicidal activity; conditions: pre-emergence, 504 h
Outline: as §2

[6] = test system: crabgrass (Digitaria sanguinalis); test: Preemergence herbicidal activity; conditions: pre-emergence, 504 h
Outline: as §2

[7] = test system: lambsquarters (Chenopodium album); test: Preemergence herbicidal activity; conditions: pre-emergence, 504 h
Outline: as §2

[8] = test system: morningglory (Ipomoea hederacea); test: Preemergence herbicidal activity; conditions: Ipomoea, 504 h, read-out: % Control IPOHE; for pest or weed control at 560 ppm: rate 560 ppm
Outline: as §2

[9] = test system: pigweed (Amaranthus retroflexus); test: Preemergence herbicidal activity; conditions: Amaranthus retroflexus, 504 h; for pest or weed control at 280 ppm / pest or weed control at 560 ppm: read-out: % Control AMARE; for inhibition at 35 g/ha: pre-emergence, Table 7, rate 35 g/Ha; for pest or weed control at 560 ppm: rate 560 ppm
Outline: as §2

[10] = test system: velvetleaf (Abutilon theophrasti); test: Preemergence herbicidal activity; conditions: Abutilon theophrasti, 504 h; for pest or weed control at 280 ppm / pest or weed control at 560 ppm: read-out: % Control ABUTH; for inhibition at 35 g/ha: pre-emergence, Table 7, rate 35 g/Ha; for pest or weed control at 560 ppm: rate 560 ppm
Outline: as §2

[11] = Table 1, rate 125 ppm, visual, after 2 weeks
[12] = Table 7, rate 35 g/Ha, after 3 weeks, read-out: PREEMERGENCE HERBICIDAL ACTIVITY % CONTROL SORBI
[13] = Table 7, rate 35 g/Ha, after 3 weeks, read-out: PREEMERGENCE HERBICIDAL ACTIVITY % CONTROL XANST
[14] = Table 7, rate 35 g/Ha, after 3 weeks, read-out: PREEMERGENCE HERBICIDAL ACTIVITY % CONTROL DIGSA
[15] = Table 7, rate 35 g/Ha, after 3 weeks, read-out: PREEMERGENCE HERBICIDAL ACTIVITY % CONTROL CHEAL
[16] = Table 6 (headed Post-emergent; text: preemergence), rate 280 ppm, after 3 weeks
[17] = after 3 weeks, read-out: PREEMERGENCE HERBICIDAL ACTIVITY % CONTROL AMARE
[18] = after 3 weeks, read-out: PREEMERGENCE HERBICIDAL ACTIVITY % CONTROL ABUTH
[19] = Table 1, rate 250 ppm, visual, after 2 weeks
[20] = Table 6 (headed Post-emergent; text: preemergence), after 3 weeks

Question: Which results are given for `Nc1cc(Cl)nc(C(=O)O)c1Cl` [Compound 1, 4-Amino-3,6-dichloropyridine-2-carboxylic acid]?
Answer: inhibition at 125 ppm ([1]; read-out: PO[…] % CONTROL STEME, rate 125 ppm, after 2 weeks): 90%; pest or weed control at 125 ppm [1]: 100%; inhibition at 125 ppm ([2]; read-out: PO[…] % CONTROL XANST, rate 125 ppm, after 2 weeks): 100%; pest or weed control at 125 ppm [2]: 95%; inhibition at 125 ppm ([3]; read-out: PO[…] % CONTROL POLCO, rate 125 ppm, after 2 weeks): 100%; pest or weed control at 125 ppm [3]: 100%; inhibition at 35 g/ha ([4]; read-out: PR[…] % CONTROL SORBI, Table 7, rate 35 g/Ha, after 3 weeks): 60%; inhibition at 35 g/ha ([5]; read-out: PR[…] % CONTROL XANST, Table 7, rate 35 g/Ha, after 3 weeks): 99%; inhibition at 35 g/ha ([6]; read-out: PR[…] % CONTROL DIGSA, Table 7, rate 35 g/Ha, after 3 weeks): 20%; inhibition at 35 g/ha ([7]; read-out: PR[…] % CONTROL CHEAL, Table 7, rate 35 g/Ha, after 3 weeks): 99%; pest or weed control at 280 ppm [8]: 100%; pest or weed control at 280 ppm [9]: 100%; inhibition at 35 g/ha ([9]; read-out: PR[…] % CONTROL AMARE, after 3 weeks): 88%; pest or weed control at 280 ppm [10]: 100%; inhibition at 35 g/ha ([10]; read-out: PR[…] % CONTROL ABUTH, after 3 weeks): 95%

Question: Which results are given for `COC(=O)c1nc(Cl)cc(N)c1Cl` [Compound 3, methyl 4-amino-3,6-dichloropyridine-2-carboxylate]?
Answer: pest or weed control at 125 ppm [1, 11]: 100%; pest or weed control at 125 ppm [2, 11]: 100%; pest or weed control at 125 ppm [3, 11]: 100%; inhibition at 35 g/ha [4, 12]: 30%; inhibition at 35 g/ha [5, 13]: 90%; inhibition at 35 g/ha [6, 14]: 40%; inhibition at 35 g/ha [7, 15]: 100%; pest or weed control at 280 ppm [8, 16]: 100%; pest or weed control at 280 ppm [9, 16]: 100%; inhibition at 35 g/ha [9, 17]: 90%; pest or weed control at 280 ppm [10, 16]: 100%; inhibition at 35 g/ha [10, 18]: 95%

Question: Which results are given for `CCOC(=O)c1nc(Cl)cc(N)c1Cl` [Compound 4, ethyl 4-amino-3,6-dichloropyridine-2-carboxylate]?
Answer: pest or weed control at 125 ppm [1, 11]: 100%; inhibition at 125 ppm ([1]; rate 125 ppm, after 2 weeks): 70%; pest or weed control at 125 ppm [2, 11]: 100%; inhibition at 125 ppm ([2]; rate 125 ppm, after 2 weeks): 100%; pest or weed control at 125 ppm [3, 11]: 100%; inhibition at 125 ppm ([3]; rate 125 ppm, after 2 weeks): 100%; pest or weed control at 280 ppm [8, 16]: 100%; pest or weed control at 280 ppm [9, 16]: 100%; pest or weed control at 280 ppm [10, 16]: 100%

Question: Which results are given for `Nc1cc(Br)nc(C(=O)O)c1Cl` [Compound 14, 4-Amino-6-bromo-3-chloropyridine-2-carboxylic acid]?
Answer: pest or weed control at 250 ppm [1, 19]: 90%; inhibition at 125 ppm ([1]; rate 125 ppm, after 2 weeks): 65%; Post-emergent Evaluation - % control STEME ([1]; Table 5, rate 250 ppm): 70%; pest or weed control at 250 ppm ([2]; Table 1, visual, after 2 weeks): 85%; inhibition at 125 ppm ([2]; rate 125 ppm, after 2 weeks): 100%; pest or weed control at 250 ppm [3, 19]: 50%; inhibition at 125 ppm ([3]; rate 125 ppm, after 2 weeks): 100%; Post-emergent Evaluation - % control POLCO ([3]; Table 5, rate 250 ppm): 90%; inhibition at 35 g/ha [4, 12]: 50%; inhibition at 35 g/ha [5, 13]: 100%; inhibition at 35 g/ha [6, 14]: 80%; inhibition at 35 g/ha [7, 15]: 100%; pest or weed control at 560 ppm [8, 20]: 100%; pest or weed control at 560 ppm [9, 20]: 90%; inhibition at 35 g/ha [9, 17]: 100%; pest or weed control at 560 ppm [10, 20]: 100%; inhibition at 35 g/ha [10, 18]: 100%

Question: How did the pest or weed control at 125 ppm [1, 11] turn out when `Nc1c(F)c(Cl)nc(C(=O)O)c1Cl` [Compound 19, 4-Amino-3,6-dichloro-5-fluoropyridine-2-carboxylic acid] was run?
Answer: The pest or weed control at 125 ppm was 95%.

Question: And the inhibition at 125 ppm ([1]; rate 125 ppm, after 2 weeks)?
Answer: Its inhibition at 125 ppm is 60%.

Question: What about the pest or weed control at 125 ppm [2, 11] of the same compound?
Answer: Its pest or weed control at 125 ppm is 95%.

Question: And the inhibition at 125 ppm ([2]; rate 125 ppm, after 2 weeks)?
Answer: The inhibition at 125 ppm was 95%.

Question: What about the pest or weed control at 125 ppm [3, 11] of the same compound?
Answer: Its pest or weed control at 125 ppm is 100%.

Question: What about the inhibition at 125 ppm ([3]; rate 125 ppm, after 2 weeks) of the same compound?
Answer: The inhibition at 125 ppm was 100%.

Question: And the pest or weed control at 560 ppm [8, 20]?
Answer: Its pest or weed control at 560 ppm is 100%.

Question: What about the pest or weed control at 560 ppm [9, 20] of the same compound?
Answer: Its pest or weed control at 560 ppm is 100%.

Question: What about the pest or weed control at 560 ppm [10, 20] of the same compound?
Answer: Its pest or weed control at 560 ppm is 100%.

Question: `COc1c(C(=O)O)nc(Br)c(Cl)c1N` [Compound 42, 4-Amino-6-bromo-5-chloro-3-methoxypyridine-2-carboxylic acid] was tested. Which pest or weed control at 250 ppm [1, 19] did it give?
Answer: The pest or weed control at 250 ppm was 90%.

Question: What about the pest or weed control at 250 ppm ([2]; Table 1, visual, after 2 weeks) of the same compound?
Answer: The pest or weed control at 250 ppm was 85%.

Question: And the pest or weed control at 250 ppm [3, 19]?
Answer: Its pest or weed control at 250 ppm is 90%.

Question: What about the inhibition at 35 g/ha [4, 12] of the same compound?
Answer: The inhibition at 35 g/ha was 20%.

Question: And the inhibition at 35 g/ha [5, 13]?
Answer: Its inhibition at 35 g/ha is 98%.

Question: And the inhibition at 35 g/ha [6, 14]?
Answer: Its inhibition at 35 g/ha is 30%.

Question: What about the inhibition at 35 g/ha [7, 15] of the same compound?
Answer: The inhibition at 35 g/ha was 90%.

Question: And the pest or weed control at 560 ppm [8, 20]?
Answer: The pest or weed control at 560 ppm was 100%.

Question: What about the pest or weed control at 560 ppm [9, 20] of the same compound?
Answer: The pest or weed control at 560 ppm was 100%.

Question: And the inhibition at 35 g/ha [9, 17]?
Answer: The inhibition at 35 g/ha was 60%.

Question: And the pest or weed control at 560 ppm [10, 20]?
Answer: Its pest or weed control at 560 ppm is 100%.

Question: And the inhibition at 35 g/ha [10, 18]?
Answer: Its inhibition at 35 g/ha is 80%.
